Assay results taken from patent US8575148B2, “Spiro azepane-oxazolidinones as Kv1.3 potassium channel blockers” (Abbott Healthcare Products B.V., priority 2008, dated 2013).

Molecular target: T1, voltage gated potassium channel Kv1.3 (Homo sapiens, UniProt P22001)
T1 construct: expressed in transfected cells; host or cells: CHO cells
Assay: In vitro inhibition of Kv1.3 potassium channels (Rb efflux, atomic absorption)
Format: cell-based
Settings: CHO cells over-expressing Kv1.3, Rb efflux after depolarization, triplicate; for inhibition at 10 µM: 10^−5 M, read-out: percentage Kv1.3 inhibition at 10^−5M
Excerpt: In vitro inhibition of Kv1.3 potassium channels: the assay was used to determine the permeability of potassium ion channels expressed in the cell membrane. […] Adherent CHO cells over-expressing the voltage gated potassium channel Kv1.3 were loaded with Rb. Depolarization of the cells leads to opening of the potassium channels and to efflux of Rb through the potassium channels. Thus, the Rb concentration in the supernatant is proportional to the potassium ion channel permeability. To identify potassium channel blockers, cells were incubated with compounds before depolarization. A reduction of Rb in the supernatant indicated the presence of a potassium ion channel blocker. The Rb concentration in the supernatant was measured using an Atomic Absorption Spectrometer.
CHO cells expressing either Kv1.3, Kv1.5 or hERG ion channels were cultured at 37° C./5% CO2. Prior to the experiment cells were seeded in 96 well plates (Corning, N.Y., USA) and cultured for 24 h. Medium was discarded and replaced by 100 μl Rb buffer (10 mM HEPES pH 7.4, 5 mM Glucose, 5 mM RbCl, 140 mM NaCl, 2 mM CaCl2, 1 mM MgSO4) per well. After 4 h incubation the cells were washed three times with low potassium buffer (10 mM HEPES pH 7.4, 5 mM Glucose, 5 mM KCl, 140 mM NaCl, 2 mM CaCl2, 1 mM MgSO4). Compounds were dissolved in 75 μl low potassium buffer and added to the cells. After 12 minutes cells were depolarized by adding […] high potassium buffer (10 mM HEPES pH 7.4, 5 mM Glucose, 145 mM KCl, 2 mM CaCl2, 1 mM MgSO4), followed by additional 15 minutes of incubation. The supernatant was transferred in a 96 well plate and the Rb concentration was measured using a ZEEnit Atomic Absorption Spectrometer (Analytik Jena, Germany). By comparing control vs. depolarized w/o compound, the ion channel inhibition was determined. Measurements were done in triplicate.

T1 sequence (P22001 whole entry): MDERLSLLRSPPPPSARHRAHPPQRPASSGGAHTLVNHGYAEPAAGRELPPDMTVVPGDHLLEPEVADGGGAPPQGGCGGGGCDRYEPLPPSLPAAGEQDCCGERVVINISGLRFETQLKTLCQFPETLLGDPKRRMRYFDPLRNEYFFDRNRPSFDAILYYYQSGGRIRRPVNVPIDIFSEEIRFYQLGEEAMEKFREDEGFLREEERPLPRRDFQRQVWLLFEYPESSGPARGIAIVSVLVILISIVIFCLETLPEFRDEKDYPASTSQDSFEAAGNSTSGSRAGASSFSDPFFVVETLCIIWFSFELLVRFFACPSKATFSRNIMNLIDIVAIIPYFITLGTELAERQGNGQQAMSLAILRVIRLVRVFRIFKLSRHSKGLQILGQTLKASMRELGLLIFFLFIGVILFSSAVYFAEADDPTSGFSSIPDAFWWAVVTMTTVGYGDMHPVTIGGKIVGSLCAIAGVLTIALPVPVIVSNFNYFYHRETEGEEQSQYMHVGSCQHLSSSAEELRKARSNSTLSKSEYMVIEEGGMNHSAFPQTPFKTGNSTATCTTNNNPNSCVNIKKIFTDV

## C[C@@H](c1ccccc1)N1C[C@]2(CCCN(C(=O)c3cc(C(F)(F)F)cc(C(F)(F)F)c3)CC2)OC1=O [Compound 30, (5R)-8-[3,5-bis(trifluoromethyl)benzoyl]-3-[(1S)-1-phenylethyl]-1-oxa-3,8-diazaspiro[4.6]-undecan-2-one]
  inhibition at 10 µM: 75%

## C[C@H](c1ccccc1)N1CC2(CCCN(C(=O)c3cc(C(F)(F)F)cc(C(F)(F)F)c3)CC2)OC1=O (stereo partly drawn) [Compound 31, 8-(3,5-trifluoromethyl-benzoyl)-3-[(R)-1-phenyl-ethyl]-1-oxa-3,8-diazaspiro[4.6]undecan-2-one]
  percentage Kv1.3 inhibition at 10^−5M: 64%

## C[C@@H](c1ccccc1)N1C[C@@]2(CCCN(C(=O)c3cc(C(F)(F)F)cc(C(F)(F)F)c3)CC2)OC1=O [Compound 29, (5S)-8-[3,5-bis(trifluoromethyl)benzoyl]-3-[(1S)-1-phenylethyl]-1-oxa-3,8-diazaspiro[4.6]-undecan-2-one]
  inhibition at 10 µM: 100%

## C[C@H](c1ccccc1)N1C[C@@]2(CCCN(C(=O)c3cc(C(F)(F)F)cc(C(F)(F)F)c3)CC2)OC1=O [Compound 32, (5S)-8-[3,5-bis(trifluoromethyl)benzoyl]-3-[(1R)-1-phenylethyl]-1-oxa-3,8-diazaspiro[4.6]-undecan-2-one]
  inhibition at 10 µM: 99%
